Experimental data as given in PMC10600239, “Selective MCL-1 inhibitor ABBV-467 is efficacious in tumor models but is associated with cardiac troponin increases in patients” (Communications Medicine, 2023).

Assay: Phase 1 first-in-human study (NCT04178902): safety
Assay type: in vivo
Source text: This FIH study (NCT04178902) for ABBV-467 was a multicenter, open-label, dose-escalation study enrolling patients aged ≥18 years who had R/R MM, with the option to enroll R/R AML once recommended phase 2 dose (RP2D) was established. The study design was originally planned to consist of 2 parts: dose escalation and dose expansion, including a minimum of 6 patients treated during dose escalation at what was ultimately to be declared the RP2D. Patients must have received 3 or more prior lines of therapy including at least 1 or more immunomodulatory agents, 1 or more proteasome inhibitors, and 1 or more anti-CD38 monoclonal antibodies. Other eligibility criteria included: Eastern Cooperative Oncology Group performance status ≤2, measurable disease as defined by International Myeloma Working Group (IMWG) consensus criteria, an echocardiogram with an ejection fraction ≥50%, and adequate hematologic, hepatic, and renal function. The prespecified primary objectives were to characterize the safety and toxicity profiles, to establish the RP2D, and to determine the pharmacokinetic (PK) profile of ABBV-467 monotherapy. Safety evaluations included, but were not limited to, adverse event (AE) monitoring, physical examinations, vital sign measurements, electrocardiogram (ECG), cardiac enzyme monitoring, and clinical laboratory testing (hematology and chemistry) as a measure of safety and tolerability for the entire study duration. Parameters used to determine PK included maximum observed plasma concentration (Cmax), terminal elimination half-life (t1/2), area under the plasma concentration-time curve (AUC) from time 0 to time of last measurable concentration (AUCt), AUC from time 0 to infinity (AUC0-∞), and clearance using non-compartmental methods. Secondary objectives were preliminary evaluation of the efficacy of ABBV-467 in R/R MM and R/R AML. Preliminary efficacy endpoints were overall response rate (ORR), clinical benefit rate (CBR), and duration of response (DOR) as evaluated per adapted IMWG[36] criteria for MM and per adapted International Working Group (IWG)[37] and European Leukemia Net (ELN)[38] criteria for AML.
ABBV-467 was administered as an IV infusion once weekly, for each 28-day cycle over at least a 30-minute period beginning on day 1 of cycle 1. The first infusion was given at half the target dose level. Dosing increased from patient cohort to patient cohort; the escalation was guided by a Bayesian optimal interval design[39] on the basis of the cumulative number of patients who experienced a dose-limiting toxicity (DLT) at a given ABBV-467 dose level. The DLT observation period was defined as the first treatment cycle (cycle 1). AEs of any grade resulting in discontinuation of study drug or missing any dose as a result of toxicity unexplained by underlying disease will be considered a DLT. Any AE of grade 3 or higher will be considered a DLT, unless toxicity can solely be attributed to the underlying disease, with the following clarifications. A non-hematologic DLT was defined as: grade 3 mucositis, nausea, vomiting, or diarrhea that required total parenteral nutrition, tube feeding, or hospitalization lasting >72 h; any grade 4 non-hematologic laboratory abnormality; and any instance of an AE that met the definition of Hy’s Law.
Blood samples for plasma ABBV-467 concentration analysis were collected on days 1, 2, 3, and 15–17 of cycle 1 as well as on days 1 of cycles for PK analysis. Plasma samples of ABBV-467 were quantified using a validated LC-tandem MS with a lower limit of detection of 3 ng/mL. ABBV-467 PK parameters were calculated using standard non-compartmental approaches with Phoenix, WinNonlin (Version 8.0, Certara). AE severity was graded according to the National Cancer Institute Common Terminology Criteria for Adverse Events v5.0 for up to 30 days after the last dose. Analyses of AEs will include only treatment-emergent AEs. Triplicate ECGs were performed on days 1, 2, 15, and 16 of cycle 1. […]

SMILES: Cc1c(Cl)c2c(Cl)c(C)c1-c1c(-c3ccc(F)cc3)sc3ncnc(c13)O[C@@H](C(=O)O)Cc1cc(ccc1OCc1ccnc(-c3ccc(OC[C@H]4COCCO4)cc3)n1)OC[C@@H](CN1CCN(C)CC1)O2 [ABBV-467]
- Any AE, n (%) (0.32 mg/kg (n = 2)): 2 (100) n (%)
- TEAE: Anemia (0.32 mg/kg (n = 2)): 1 (50) n (%)
- TEAE: Arthralgia (0.32 mg/kg (n = 2)): 0 n (%)
- TEAE: Arthritis (0.32 mg/kg (n = 2)): 0 n (%)
- TEAE: Diarrhea (0.32 mg/kg (n = 2)): 1 (50) n (%)
- TEAE: Febrile neutropenia (0.32 mg/kg (n = 2)): 0 n (%)
- TEAE: Gastritis (0.32 mg/kg (n = 2)): 0 n (%)
- TEAE: Increased alanine aminotransferase (0.32 mg/kg (n = 2)): 0 n (%)
- TEAE: Increased amylase (0.32 mg/kg (n = 2)): 0 n (%)
- TEAE: Increased aspartate aminotransferase (0.32 mg/kg (n = 2)): 0 n (%)
- TEAE: Increased troponin I (0.32 mg/kg (n = 2)): 1 (50) n (%)
- TEAE: Increased troponin T (0.32 mg/kg (n = 2)): 0 n (%)
- TEAE: Malaise (0.32 mg/kg (n = 2)): 1 (50) n (%)
- TEAE: Nausea (0.32 mg/kg (n = 2)): 0 n (%)
- TEAE: Neutropenia (0.32 mg/kg (n = 2)): 0 n (%)
- TEAE: Pain in extremity (0.32 mg/kg (n = 2)): 0 n (%)
- TEAE: Pelvic pain (0.32 mg/kg (n = 2)): 0 n (%)
- TEAE: Vitreous floaters (0.32 mg/kg (n = 2)): 0 n (%)
- Any AE, n (%) (0.53 mg/kg (n = 3)): 3 (100) n (%)
- TEAE: Anemia (0.53 mg/kg (n = 3)): 0 n (%)
- TEAE: Arthralgia (0.53 mg/kg (n = 3)): 0 n (%)
- TEAE: Arthritis (0.53 mg/kg (n = 3)): 0 n (%)
- TEAE: Diarrhea (0.53 mg/kg (n = 3)): 0 n (%)
- TEAE: Febrile neutropenia (0.53 mg/kg (n = 3)): 0 n (%)
- TEAE: Gastritis (0.53 mg/kg (n = 3)): 0 n (%)
- TEAE: Increased alanine aminotransferase (0.53 mg/kg (n = 3)): 1 (33) n (%)
- TEAE: Increased amylase (0.53 mg/kg (n = 3)): 1 (33) n (%)
- TEAE: Increased aspartate aminotransferase (0.53 mg/kg (n = 3)): 2 (67) n (%)
- TEAE: Increased troponin I (0.53 mg/kg (n = 3)): 1 (33) n (%)
- TEAE: Increased troponin T (0.53 mg/kg (n = 3)): 1 (33) n (%)
- TEAE: Malaise (0.53 mg/kg (n = 3)): 0 n (%)
- TEAE: Nausea (0.53 mg/kg (n = 3)): 0 n (%)
- TEAE: Neutropenia (0.53 mg/kg (n = 3)): 0 n (%)
- TEAE: Pain in extremity (0.53 mg/kg (n = 3)): 0 n (%)
- TEAE: Pelvic pain (0.53 mg/kg (n = 3)): 0 n (%)
- TEAE: Vitreous floaters (0.53 mg/kg (n = 3)): 0 n (%)
- dose-limiting toxicity (1 patient, grade 3 treatment-related troponin I elevation leading to discontinuation): classified as a DLT
- patients with grade 3 TEAEs (N = 8): 3 patients
- patients with treatment-related AEs (N = 8): 63%
- Any AE, n (%) (Total (N = 8)): 7 (88) n (%)
- TEAE: Anemia (Total (N = 8)): 1 (13) n (%)
- TEAE: Arthralgia (Total (N = 8)): 1 (13) n (%)
- TEAE: Arthritis (Total (N = 8)): 1 (13) n (%)
- TEAE: Diarrhea (Total (N = 8)): 2 (25) n (%)
- TEAE: Febrile neutropenia (Total (N = 8)): 1 (13) n (%)
- TEAE: Gastritis (Total (N = 8)): 1 (13) n (%)
- TEAE: Increased alanine aminotransferase (Total (N = 8)): 1 (13) n (%)
- TEAE: Increased amylase (Total (N = 8)): 1 (13) n (%)
- TEAE: Increased aspartate aminotransferase (Total (N = 8)): 2 (25) n (%)
- TEAE: Increased troponin I (Total (N = 8)): 2 (25) n (%)
- TEAE: Increased troponin T (Total (N = 8)): 2 (25) n (%)
- TEAE: Malaise (Total (N = 8)): 1 (13) n (%)
- TEAE: Nausea (Total (N = 8)): 2 (25) n (%)
- TEAE: Neutropenia (Total (N = 8)): 1 (13) n (%)
- TEAE: Pain in extremity (Total (N = 8)): 1 (13) n (%)
- TEAE: Pelvic pain (Total (N = 8)): 1 (13) n (%)
- TEAE: Vitreous floaters (Total (N = 8)): 1 (13) n (%)
- cardiac disorders (any dose cohort): No cardiac disorders of any grade
- grade 5 toxicities (any dose cohort): no grade 5 toxicities
